Reference: ChEMBL document CHEMBL4811258, “Potent Antimalarials with Development Potential Identified by Structure-Guided Computational Optimization of a Pyrrole-Based Dihydroorotate Dehydrogenase Inhibitor Series” (J Med Chem, 2021)
Activity calls are given as the source filed them. The rule behind the calls is not given here.

Tests used:
[1] = Mutagenicity in Salmonella typhimurium by Ames test; assay type: toxicity; settings: salmonella enterica subsp. enterica serovar typhimurium
HepG2 = assay: Cytotoxicity against human HepG2 cells; assay type: cell-based
[2] = molecular target: Dihydroorotate dehydrogenase (quinone), mitochondrial (Mus musculus, UniProt O35435); assay: Inhibition of mouse DHODH up to 100 uM
Sequence of Dihydroorotate dehydrogenase (quinone), mitochondrial (Mus musculus, UniProt O35435) (O35435 whole entry): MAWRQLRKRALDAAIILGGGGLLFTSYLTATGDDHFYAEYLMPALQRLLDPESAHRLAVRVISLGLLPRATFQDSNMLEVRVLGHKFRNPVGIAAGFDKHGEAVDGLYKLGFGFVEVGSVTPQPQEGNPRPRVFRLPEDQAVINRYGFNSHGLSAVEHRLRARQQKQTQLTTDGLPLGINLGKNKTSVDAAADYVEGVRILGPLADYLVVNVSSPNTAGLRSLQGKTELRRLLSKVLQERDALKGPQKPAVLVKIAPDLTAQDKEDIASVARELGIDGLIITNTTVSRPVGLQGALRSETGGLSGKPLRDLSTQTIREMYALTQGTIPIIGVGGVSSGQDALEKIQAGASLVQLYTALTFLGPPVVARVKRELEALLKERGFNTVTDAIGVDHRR

L1210 = assay: Cytotoxicity against mouse L1210 cells; assay type: cell-based
[3] = Inhibition of dog DHODH up to 100 uM; set-up: species or system Canis lupus familiaris
[4] = molecular target: Dihydroorotate dehydrogenase (quinone), mitochondrial (Rattus norvegicus, UniProt Q63707); assay: Inhibition of rat DHODH up to 100 uM
Sequence of Dihydroorotate dehydrogenase (quinone), mitochondrial (Rattus norvegicus, UniProt Q63707) (Q63707 whole entry): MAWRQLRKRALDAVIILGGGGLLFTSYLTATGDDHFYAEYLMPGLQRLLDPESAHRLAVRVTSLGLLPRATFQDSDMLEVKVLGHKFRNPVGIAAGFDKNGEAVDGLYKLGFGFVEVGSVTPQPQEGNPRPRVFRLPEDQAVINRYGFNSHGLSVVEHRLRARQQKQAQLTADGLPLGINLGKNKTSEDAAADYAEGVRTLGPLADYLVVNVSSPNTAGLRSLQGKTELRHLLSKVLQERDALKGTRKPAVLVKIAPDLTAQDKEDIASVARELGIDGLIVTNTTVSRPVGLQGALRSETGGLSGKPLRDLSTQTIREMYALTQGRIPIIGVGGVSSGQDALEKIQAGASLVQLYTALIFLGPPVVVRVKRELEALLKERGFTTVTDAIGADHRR

[5] = Inhibition of Plasmodium falciparum DHODH expressed in Escherichia coli BL21-DE3 using L-dihydroorotate as substrate by steady-state DCIP method
[6] = molecular target: Dihydroorotate dehydrogenase (quinone), mitochondrial (Homo sapiens, UniProt Q02127); assay type: ADME
Sequence of Dihydroorotate dehydrogenase (quinone), mitochondrial (Homo sapiens, UniProt Q02127) (Q02127 whole entry): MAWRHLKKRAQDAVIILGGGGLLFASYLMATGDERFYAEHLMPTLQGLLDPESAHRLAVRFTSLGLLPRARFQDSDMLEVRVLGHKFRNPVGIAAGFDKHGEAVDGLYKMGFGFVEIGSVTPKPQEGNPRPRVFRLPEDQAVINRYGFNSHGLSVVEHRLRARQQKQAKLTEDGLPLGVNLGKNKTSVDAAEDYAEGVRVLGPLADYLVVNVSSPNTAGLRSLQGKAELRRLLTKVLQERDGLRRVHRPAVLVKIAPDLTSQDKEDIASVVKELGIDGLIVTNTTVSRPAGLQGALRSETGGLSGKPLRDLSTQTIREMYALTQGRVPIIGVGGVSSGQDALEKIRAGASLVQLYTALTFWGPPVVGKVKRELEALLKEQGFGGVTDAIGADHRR

Plasmodium falciparum [7] = assay: microbe, parasite or virus in culture; settings: 3D7, 72 h
[8] = Inhibition of Plasmodium vivax DHODH expressed in Escherichia coli BL21-DE3 using L-dihydroorotate as substrate by steady-state DCIP method
Plasmodium falciparum [9] = assay: Antimalarial activity against Plasmodium falciparum 3D70087/N9 infected in orally dosed NOD-SCID IL2Rgamma null mouse assessed as parasitemia level in human red blood cells at 10 to 100 mg/kg, po administered days after 1 day post infection twice daily for 6 days measured on day 7 by flow cytometry; assay type: functional, organism-based; settings: dose 10-100 mg/kg
[10] = Lipophilicity, logD of compound at pH 7.4; assay type: physicochemical; settings: buffer
Plasmodium falciparum [11] = tested on: Plasmodium falciparum
[12] = Oral bioavailability in mouse at 19 mg/kg; assay type: ADME, organism-based; settings: in vivo

Row | SMILES | IC50 [5] [nM] | IC50 [6] [nM] | EC50 (Plasmodium falciparum [7]) [nM] | IC50 [8] [nM] | also measured
1 | Cc1c(C2(c3ccc(C(F)(F)F)c(C#N)c3)CC2)c[nH]c1C(=O)NC(C)c1nc[nH]n1 (stereo in doubt; form 1) [listing 1 of 2 here] | – | – | – | – | Activity [1]: Non-Toxic; Activity (HepG2): Non-Toxic; inhibition (INH) [2]: Not Active; Activity (L1210): Non-Toxic; inhibition (INH) [3]: Not Active; inhibition (INH) [4]: Not Active
2 | Cc1nc(C(C)NC(=O)c2[nH]cc(Cc3ccc(C(F)(F)F)nc3)c2C)no1 (racemic) | 370 | > 100000 | 190 | 100 | –
3 | Cc1c(C2(c3ccc(C(F)(F)F)c(C#N)c3)CC2)c[nH]c1C(=O)NC(C)c1nc[nH]n1 (stereo in doubt; form 1) [listing 2 of 2 here] | – | – | – | – | Activity (Plasmodium falciparum [9]): Active
4 | Cc1cc(C(C)NC(=O)c2[nH]cc(Cc3ccc(F)c4ccncc34)c2C)no1 (racemic) | 36 | > 100000 | 2.2 | 48 | –
5 | Cc1c(Cc2ccc(F)c3ccncc23)c[nH]c1C(=O)NC1CC1 | 6.1 | > 100000 | 0.92 | 4 | logD [10]: < 3.4
6 | Cc1c(Cc2ccc(C(F)(F)F)nc2)c[nH]c1C(=O)NC(C)c1cc(Br)no1 (racemic) | 70 | > 100000 | 120 | 20 | –
7 | Cc1cc(C(C)NC(=O)c2[nH]cc(Cc3cccc4ccncc34)c2C)no1 (racemic) | 30 | > 100000 | 3.7 | 21 | –
8 | COC(c1ccc(C(F)(F)F)nc1)c1c[nH]c(C(=O)NC(C)c2cc(C)on2)c1C (racemic) | 150 | > 100000 | 40 | 100 | –
9 | Cc1c(C2(c3ccc(C(F)(F)F)nc3)CC2)c[nH]c1C(=O)NC(C)c1cc(C(N)=O)[nH]n1 (stereo in doubt; form 1) | 140 | – | – | 170 | EC50 (Plasmodium falciparum [11]): 46 nM; F [12]: 18%
10 | COc1ccc(Cc2c[nH]c(C(=O)NC3CC3)c2C)c2cnccc12 | 23 | > 50000 | 1.7 | 21 | logD [10]: < 3.4
11 | Cc1c(Cc2ccc(C(F)(F)F)nc2F)c[nH]c1C(=O)NCC(F)(F)F | 79 | > 100000 | 20 | 53 | –
12 | Cc1c(Cc2ccc(C(F)(F)F)cc2Br)c[nH]c1C(=O)NC(C)c1nc[nH]n1 (racemic) | 950 | > 100000 | 990 | 260 | –
13 | Cc1c(Cc2cccc3ccncc23)c[nH]c1C(=O)NCC(F)(F)F | 35 | > 100000 | 9.6 | 17 | logD [10]: < 3.4
